“Also recorded” adds a separate entry of the source. Where two headings read alike, the source gives them in different places.
Legend:
[1] = Plasma and urine pharmacokinetics of berzosertib (LC-MS/MS, non-compartmental analysis); assay type: in vivo, human; conditions: for AUC(0-inf) / clearance / Cmax / half-life / Vd: plasma; for AUC(0-inf): read-out: AUC0–∞, mean (%CV); for clearance: read-out: CL, mean (%CV) (converted); for Cmax: read-out: Cmax, mean (%CV); for Vd: read-out: Vss, mean (%CV)
Procedure: In cycle 1, plasma samples for PK analysis were collected both pre- and post-dose on days 2–5 (pre-dose, 0.5 h before the end of infusion, at the end of infusion, and 0.5, 1, 2, 3, 7, 23, 47, and 71 h after end of infusion) and day 9 (pre-dose). Plasma samples were also collected on day 2 of cycle 2 (pre-dose and 2 h after the end of infusion). Cumulative urine was also collected for PK assessments on days 2 and 3 of cycle 1 (pre-dose to 3, 3–7, 7–11, and 11–23 h). Berzosertib concentrations were quantified using a validated liquid chromatography tandem-mass spectrometry method and plasma PK were characterised by non-compartmental analyses using Phoenix WinNolin 6.4 (Certara USA Inc., Princeton, NJ, USA).
The safety set was defined as all patients who received at least one dose of study drug; patients within the safety set were further classified into those who received at least one dose of the study drug in the lead-in period (lead-in safety set) and those who received at least one dose during the combination period (combination safety set). PK data were collected in the PK analysis set, defined as all enrolled patients who received at least one dose of berzosertib and provided at least one measurable post-dose sample. For efficacy analyses, the full analysis set was used, comprising all enrolled patients who had received a baseline scan, at least one dose of study drug, and had at least one post-baseline disease assessment.
Standard non-compartmental methods were used to determine PK parameters. Continuous variables were summarised using descriptive summary statistics. Categorical variables (e.g. incidence of a TEAE) were summarised using frequency counts and percentages. TEAEs observed were summarised by system organ class and preferred term according to the Medical Dictionary for Regulatory Activities v.18.0 or higher.

[2] = system: patients with advanced solid tumours; conditions: on second infusion of berzosertib; idiosyncratic, no clear relationship to dose; stated as recognised, no reference given; cited from earlier work
ATR = system: ATR; design: method as in PMID 25010037; conditions: ATR inhibitor; cited from earlier work
[3] = system: patients with advanced solid tumours; experiment: Phase 1 safety and tolerability: TEAEs (NCI CTCAE v4.0), DLTs, MTD/RP2D; assay type: in vivo
Procedure: Part B was a single-arm, 3 + 3 dose-escalation Phase 1 study evaluating the safety, tolerability and PK of berzosertib in combination with cisplatin in patients with advanced solid tumours.
Following screening and baseline evaluations, patients received berzosertib i.v. (90 mg/m^2; days 2 and 9) and cisplatin (40 mg/m^2; day 1), administered in 21-day cycles. Based on safety data from two concurrent studies,[14],[15] a 7- to 14-day lead-in period with single doses of berzosertib (140 mg/m^2) alone was also planned.
For the initial dose escalation, the dose of cisplatin was held constant, while the dose of berzosertib was escalated by a maximum of 50% in each cohort. After the berzosertib dose was escalated, the dose of cisplatin could be increased in order to find the maximum-tolerated dose (MTD) of berzosertib in combination with cisplatin; the MTD was defined as the highest dose of berzosertib tolerated in combination with a cisplatin dose between 60 and 100 mg/m^2, inclusive. […] Patients received berzosertib with cisplatin until progressive disease (PD) or unacceptable toxicity.
Safety evaluations (primary endpoint) included continuous assessment of TEAEs, which were graded using National Cancer Institute Common Terminology Criteria for Adverse Events version 4.0. […] Safety was evaluated throughout treatment and was used to inform dose-escalation decisions. […]

[4] = human, intravenous, cycle 1, day 2, berzosertib and cisplatin, berzosertib 90 mg/m^2, n = 2
[5] = human, intravenous, cycle 1, day 2, berzosertib and cisplatin, berzosertib 140 mg/m^2, n = 8
[6] = human, intravenous, cycle 1, day 2, berzosertib and cisplatin, berzosertib 210 mg/m^2, n = 17
[7] = human, iv, 140 mg/m2, lead-in period, berzosertib alone, 140 mg/m^2 i.v., n = 4

SMILES: CNCc1ccc(-c2cc(-c3nc(-c4ccc(S(=O)(=O)C(C)C)cc4)cnc3N)on2)cc1 [berzosertib]
- dose proportionality of plasma exposure ([1]; 90–210 mg/m^2, based on mean plasma concentrations and Cmax): approximately dose proportional
- effect of cisplatin on berzosertib pharmacokinetics ([1]; cisplatin given 24 h before berzosertib): no apparent effect; also recorded: does not affect the PK profile
- mean percentage of berzosertib excreted in the urine ([1]; cumulative urine, days 2 and 3 of cycle 1): 6%
- CL renal ([1]; human, intravenous, cumulative urine, days 2 and 3 of cycle 1, read-out: mean renal clearance (converted)): 78.3 mL/min
- AUC(0-inf) [1, 4]: 2820 ng·h/mL
- clearance [1, 4]: 1020 mL/min
- Cmax [1, 4]: 458 ng/mL
- half-life ([1]; human, intravenous, cycle 1, day 2, berzosertib and cisplatin, berzosertib 90 mg/m^2, n = 2, read-out: T1/2, mean (%CV) (converted)): 17 h
- Vd [1, 4]: 1260 L
- AUC(0-inf) [1, 5]: 4870 ng·h/mL
- clearance [1, 5]: 912 mL/min
- Cmax [1, 5]: 854 ng/mL
- Vd [1, 5]: 1060 L
- AUC(0-inf) [1, 6]: 6740 ng·h/mL
- clearance [1, 6]: 1040 mL/min
- Cmax [1, 6]: 1230 ng/mL
- Vd [1, 6]: 1270 L
- AUC(0-inf) [1, 7]: 5670 ng·h/mL
- clearance [1, 7]: 898 mL/min
- Cmax [1, 7]: 652 ng/mL
- half-life ([1]; human, intravenous, 140 mg/m^2, berzosertib monotherapy, four patients, read-out: mean terminal elimination half-life (converted)): ~17 h
- half-life ([1]; human, intravenous, 140 mg/m^2, plasma, cycle 1, day 2, berzosertib and cisplatin, berzosertib 140 mg/m^2, n = 8, read-out: T1/2, mean (%CV) (converted)): 17.5 h
- half-life ([1]; human, intravenous, 210 mg/m^2, plasma, cycle 1, day 2, berzosertib and cisplatin, berzosertib 210 mg/m^2, n = 17, read-out: T1/2, mean (%CV) (converted)): 17.3 h
- half-life ([1]; human, iv, 140 mg/m2, plasma, lead-in period, berzosertib alone, 140 mg/m^2 i.v., n = 4, read-out: T1/2, mean (%CV) (converted)): 20.3 h
- patients with acute hypersensitivity [2]: < 5%
- IC50 (ATR): 19 nM
- DLTs during the monotherapy lead-in period ([3]; berzosertib 140 mg/m^2 alone, n = 4): no DLTs
- trends in laboratory results, vital signs or ECG parameters attributable to berzosertib ([3]; serum chemistry, haematology, urinalysis): no clinically meaningful trends

Reference: publication PMC8367944, “Phase 1 study of the ATR inhibitor berzosertib in combination with cisplatin in patients with advanced solid tumours” (British Journal of Cancer, 2021)
